Laboratory results as given in patent US12239643B2, “Therapeutic agent for inflammatory diseases, autoimmune diseases, fibrotic diseases, and cancer diseases” (MEIJI SEIKA PHARMA CO., LTD., priority 2018, dated 2025).
Like-named read-outs stand apart in the source and are kept apart here.

Test system: PDE4
Experiment: Evaluation of PDE4 inhibitory activity, scintillation proximity assay
Format: biochemical
Conditions: scintillation proximity assay
In short: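 IC50 was derived from inhibition curves, referenced to an enzyme-free blank and a DMSO-only control. Compound, PDE4 preparation and tritiated cAMP reacted 120 min at RT in Tris-HCl buffer (pH 7.4) with MgCl2, EGTA and BSA; YSi-SPA beads with ZnSO4 bound product before scintillation counting.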

[1] = class symbols of Evaluation 1, read-out: PDE4 Inhibitory Activity (concentration for the inhibition rate of 50%, IC50), Evaluation 1
[2] = read-out: PDE4 Inhibitory Activity (Evaluation 1; concentration for the inhibition rate of 50%)

| SMILES | IC50 [1] | IC50 [2] |
| --- | --- | --- |
| FC(F)(F)c1c(Cl)cc(-c2ccccn2)c2oc(N3CC4COCC(C3)N4)nc12 [Example 14, 7-(5-Chloro-7-(pyridin-2-yl)-4-(trifluoromethyl)benzo[d]oxazol-2-yl)-3-oxa-7,9-diazabicyclo[3.3.1]nonane] | 0.1 to 1 µM | – |
| O=C(c1cc(-c2nccs2)c2oc(N3CC4CCC(C3)N4)nc2c1OC(F)(F)F)N1CCC1 [Example 192, (2-(3,8-Diazabicyclo[3.2.1]octan-3-yl)-7-(thiazol-2-yl)-4-(trifluoromethoxy)benzo[d]oxazol-5-yl)(azetidin-1-yl)methanone] | – | < 0.1 µM |
| NC(=O)c1cc(-c2nccs2)c2oc(N3CC4CCC(C3)N4)nc2c1 [Example 99, 2-(3,8-Diazabicyclo[3.2.1]octan-3-yl)-7-(thiazol-2-yl)benzo[d]oxazole-5-carboxamide] | < 0.1 µM | – |
| CC(O)c1cc(-c2nccs2)c2oc(N3CC4CCC(C3)N4O)nc2c1C(F)(F)F (stereo not drawn) [Example 384, 3-(5-(1-Hydroxyethyl)-7-(thiazol-2-yl)-4-(trifluoromethyl)benzo[d]oxazol-2-yl)-3,8-diazabicyclo[3.2.1]octan-8-ol] | – | > 1 µM |
| CC(C)c1cc(-c2nccs2)c2oc(N3CC4CC(C3)N4)nc2c1 [Example 22, 2-(3,6-Diazabicyclo[3.1.1]heptan-3-yl)-5-isopropyl-7-(thiazol-2-yl)benzo[d]oxazole] | < 0.1 µM | – |
| CC(C)(CO)Oc1ccc(-c2nccs2)c2oc(N3CC4CC(C3)N4)nc12 [Example 268, 2-((2-(3,6-Diazabicyclo[3.1.1]heptan-3-yl)-7-(thiazol-2-yl)benzo[d]oxazol-4-yl)oxy)-2-methylpropan-1-ol] | – | < 0.1 µM |
| COc1cc(-c2nccs2)c2oc(N3CC4CCC(C3)N4)nc2c1 [Example 60, 2-(3,8-Diazabicyclo[3.2.1]octan-3-yl)-5-methoxy-7-(thiazol-2-yl)benzo[d]oxazole] | < 0.1 µM | – |
| ON1C2CC1CN(c1nc3c(OC(F)(F)F)ccc(-c4nccs4)c3o1)C2 [Example 380, 3-(7-(Thiazol-2-yl)-4-(trifluoromethoxy)benzo[d]oxazol-2-yl)-3,6-diazabicyclo[3.1.1]heptan-6-ol] | – | < 0.1 µM |
| CC(=O)c1cc(-c2nccs2)c2oc(N3CC4CCC(C3)N4)nc2c1 [Example 108, 1-(2-(3,8-Diazabicyclo[3.2.1]octan-3-yl)-7-(thiazol-2-yl)benzo[d]oxazol-5-yl)ethan-1-one] | < 0.1 µM | – |
| COc1ccc(-c2nccs2)c2oc(N3CC4CC(C3)N4)nc12 [Example 76, 2-(3,6-Diazabicyclo[3.1.1]heptan-3-yl)-4-methoxy-7-(thiazol-2-yl)benzo[d]oxazole] | < 0.1 µM | – |
| CC(C)(O)C(F)(F)Oc1ccc(-c2nccs2)c2oc(N3CC4CC(C3)N4O)nc12 [Example 371, 3-(4-(1,1-Difluoro-2-hydroxy-2-methylpropoxy)-7-(thiazol-2-yl)benzo[d]oxazol-2-yl)-3,6-diazabicyclo[3.1.1]heptan-6-ol] | – | < 0.1 µM |
| COC(C)(C)c1cc(-c2nccs2)c2oc(N3CC4CCC(C3)N4)nc2c1C(F)(F)F [Example 171, 2-(3,8-Diazabicyclo[3.2.1]octan-3-yl)-5-(2-methoxypropan-2-yl)-7-(thiazol-2-yl)-4-(trifluoromethyl)benzo[d]oxazole] | < 0.1 µM | – |
| CC(C)(O)COC(c1ccc(-c2nccs2)c2oc(N3CC4CC(C3)N4)nc12)C(F)(F)F (stereo not drawn) [Example 255] | – | < 0.1 µM |
| CC(C)(O)c1cc(-c2nccs2)c2oc(N3CC4CCC(C3)N4O)nc2c1C(F)(F)F [Example 381, 3-(5-(2-Hydroxypropan-2-yl)-7-(thiazol-2-yl)-4-(trifluoromethyl)benzo[d]oxazol-2-yl)-3,8-diazabicyclo[3.2.1]octan-8-ol] | – | > 1 µM |
| COC1(COC(c2ccc(-c3nccs3)c3oc(N4CC5CC(C4)N5)nc23)C(F)(F)F)CC1 (stereo not drawn) [Example 282, 2-(3,6-Diazabicyclo[3.1.1]heptan-3-yl)-7-(thiazol-2-yl)-4-(2,2,2-trifluoro-1-((1-methoxycyclopropyl)methoxy)ethyl)benzo[d]oxazole] | – | < 0.1 µM |
| FC(F)(F)c1c(Cl)cc(-c2nccs2)c2oc(N3CC4CCC(C3)N4)nc12 [Example 20, 2-(3,8-Diazabicyclo[3.2.1]octan-3-yl)-5-chloro-7-(thiazol-2-yl)-4-(trifluoromethyl)benzo[d]oxazole] | < 0.1 µM | – |
| COc1ccc(-c2nccs2)c2oc(N3CC4CCCC(C3)N4)nc12 [Example 77, 2-(3,9-Diazabicyclo[3.3.1]nonan-3-yl)-4-methoxy-7-(thiazol-2-yl)benzo[d]oxazole] | < 0.1 µM | – |
| COC(c1cc(-c2nccs2)c2oc(N3CC4CC(C3)N4)nc2c1)C(F)(F)F (stereo not drawn) [Example 144, 2-(3,6-Diazabicyclo[3.1.1]heptan-3-yl)-7-(thiazol-2-yl)-5-(2,2,2-trifluoro-1-methoxyethyl)benzo[d]oxazole] | < 0.1 µM | – |

| SMILES | IC50 [1] | IC50 [2] |
| --- | --- | --- |
| CC(C)Oc1cc(-c2nccs2)c2oc(N3CC4CCC(C3)N4)nc2c1 [Example 68, 2-(3,8-Diazabicyclo[3.2.1]octan-3-yl)-5-isopropoxy-7-(thiazol-2-yl)benzo[d]oxazole] | < 0.1 µM | – |
| O=C(O)c1cc(-c2nccs2)c2oc(N3CC4CCC(C3)N4)nc2c1OC(F)(F)F [Example 189, 2-(3,8-Diazabicyclo[3.2.1]octan-3-yl)-7-(thiazol-2-yl)-4-(trifluoromethoxy)benzo[d]oxazole-5-carboxylic acid] | – | 0.1 to 1 µM |
| COC(C)c1ccc(-c2nccs2)c2oc(N3CC4CC(C3)N4)nc12 (stereo not drawn) [Example 241, 2-(3,6-Diazabicyclo[3.1.1]heptan-3-yl)-4-(1-methoxyethyl)-7-(thiazol-2-yl)benzo[d]oxazole] | – | < 0.1 µM |
| O=C(O)COc1cc(-c2nccs2)c2oc(N3CC4CCC(C3)N4)nc2c1 [Example 74, 2-((2-(3,8-Diazabicyclo[3.2.1]octan-3-yl)-7-(thiazol-2-yl)benzo[d]oxazol-5-yl)oxy)acetic acid] | < 0.1 µM | – |
| CC(C)(O)c1cc(-c2nccs2)c2oc(N3CC4CC(C3)N4)nc2c1 [Example 173, 2-(2-(3,6-Diazabicyclo[3.1.1]heptan-3-yl)-7-(thiazol-2-yl)benzo[d]oxazol-5-yl)propan-2-ol] | < 0.1 µM | – |
| COC(C)(c1cc(-c2nccs2)c2oc(N3CC4CCC(C3)N4)nc2c1)C(F)(F)F (stereo not drawn) [Example 102, 2-(3,8-Diazabicyclo[3.2.1]octan-3-yl)-7-(thiazol-2-yl)-5-(1,1,1-trifluoro-2-methoxypropan-2-yl)benzo[d]oxazole] | < 0.1 µM | – |
| OC(O)(c1ccc(-c2nccs2)c2oc(N3CC4CCC(C3)N4)nc12)C(F)(F)F [Example 233, 1-(2-(3,8-Diazabicyclo[3.2.1]octan-3-yl)-7-(thiazol-2-yl)benzo[d]oxazol-4-yl)-2,2,2-trifluoroethane-1,1-diol] | – | < 0.1 µM |
| OC(c1cc(-c2nccs2)c2oc(N3CC4CCC(C3)N4)nc2c1)C(F)(F)F (racemic) [Example 137, 1-(2-(3,8-Diazabicyclo[3.2.1]octan-3-yl)-7-(thiazol-2-yl)benzo[d]oxazol-5-yl)-2,2,2-trifluoroethan-1-ol] | < 0.1 µM | – |
| COCCOC(c1cc(-c2nccs2)c2oc(N3CC4CCC(C3)N4)nc2c1)C(F)(F)F (stereo not drawn) [Example 147, 2-(3,8-Diazabicyclo[3.2.1]octan-3-yl)-7-(thiazol-2-yl)-5-(2,2,2-trifluoro-1-(2-methoxyethoxy)ethyl)benzo[d]oxazole] | < 0.1 µM | – |
| C[C@H](O)COc1ccc(-c2nccs2)c2oc(N3CC4CC(C3)N4)nc12 [Example 260, (2S)-1-((2-(3,6-diazabicyclo[3.1.1]heptan-3-yl)-7-(thiazol-2-yl)benzo[d]oxazol-4-yl)oxy)propan-2-ol] | – | < 0.1 µM |
| OCC(CO)COc1cc(-c2nccs2)c2oc(N3CC4CCC(C3)N4)nc2c1 [Example 71, 2-(((2-(3,8-Diazabicyclo[3.2.1]octan-3-yl)-7-(thiazol-2-yl)benzo[d]oxazol-5-yl)oxy)methyl)propane-1,3-diol] | < 0.1 µM | – |
| COC(C)c1cc(-c2nccs2)c2oc(N3CC4CC(C3)N4)nc2c1OC(F)(F)F (stereo not drawn) [Example 211, 2-(3,6-Diazabicyclo[3.1.1]heptan-3-yl)-5-(1-methoxyethyl)-7-(thiazol-2-yl)-4-(trifluoromethoxy)benzo[d]oxazole] | – | < 0.1 µM |
| COC(C)(C)c1cc(-c2cscn2)c2oc(N3CC4CC(C3)N4)nc2c1OC(F)(F)F [Example 287, 2-(3,6-Diazabicyclo[3.1.1]heptan-3-yl)-5-(2-methoxypropan-2-yl)-7-(thiazol-4-yl)-4-(trifluoromethoxy)benzo[d]oxazole] | – | < 0.1 µM |
| O=S(=O)(c1ccc(-c2nccs2)c2oc(N3CC4CC(C3)N4)nc12)N1CCCC1 [Example 390, 2-(3,6-Diazabicyclo[3.1.1]heptan-3-yl)-4-(pyrrolidin-1-ylsulfonyl)-7-(thiazol-2-yl)benzo[d]oxazole] | – | < 0.1 µM |
| OC(O)(c1cc(-c2nccs2)c2oc(N3CC4CC(C3)N4)nc2c1)C(F)(F)F [Example 158, 1-(2-(3,6-Diazabicyclo[3.1.1]heptan-3-yl)-7-(thiazol-2-yl)benzo[d]oxazol-5-yl)-2,2,2-trifluoroethane-1,1-diol] | 0.1 to 1 µM | – |
| Oc1ccc(-c2nccs2)c2oc(N3CC4CCCC(C3)N4)nc12 [Example 80, 2-(3,9-Diazabicyclo[3.3.1]nonan-3-yl)-7-(thiazol-2-yl)benzo[d]oxazol-4-ol] | < 0.1 µM | – |
| Clc1ccc(-c2nccs2)c2oc(N3CC4CC(C3)N4)nc12 [Example 37, 2-(3,6-Diazabicyclo[3.1.1]heptan-3-yl)-4-chloro-7-(thiazol-2-yl)benzo[d]oxazole] | < 0.1 µM | – |
| CCOC(=O)c1cc(-n2cccn2)c2oc(N3CC4CCCC(C3)N4)nc2c1 [Example 93, Ethyl 2-(3,9-diazabicyclo[3.3.1]nonan-3-yl)-7-(1H-pyrazol-1-yl)benzo[d]oxazole-5-carboxylate] | 0.1 to 1 µM | – |
